Measurements as given in ChEMBL document CHEMBL1140718, “Fragment-based discovery of mexiletine derivatives as orally bioavailable inhibitors of urokinase-type plasminogen activator” (J Med Chem, 2008).

Legend:
[1] = molecular target: Urokinase-type plasminogen activator (Homo sapiens, UniProt P00749)
[2] = Oral bioavailability in rat at 4.2 mg/kg; format: ADME, organism-based; settings: in vivo
[3] = Volume of distribution in rat at 0.95 mg/kg, iv; format: ADME, organism-based; parameters: dose 0.95 mg/kg, route intravenous; settings: in vivo
[4] = Dissociation constant, pKa of the compound; format: physicochemical
[5] = Half life in rat at 0.95 mg/kg, iv; format: ADME, organism-based; parameters: dose 0.95 mg/kg, route intravenous; settings: in vivo
[6] = Clearance in rat at 0.95 mg/kg, iv; format: ADME, organism-based; parameters: dose 0.95 mg/kg, route intravenous; settings: in vivo

IC50 [1]	SMILES	other results
0.41 µM	CCOC(=O)N1CCN(C(=O)[C@H](Cc2cccc(C(=N)N)c2)NS(=O)(=O)c2c(C(C)C)cc(C(C)C)cc2C(C)C)CC1	–
0.46 µM	CCOc1c(Cl)cc(N2CCCCC2)cc1NC(=O)c1cc(C)c(OC[C@@H](C)N)c(C)c1	–
0.02 µM	N=C(N)c1ccc(CNC(=O)[C@H](CO)NC(=O)[C@@H](CO)NS(=O)(=O)Cc2ccccc2)cc1	–
2.7 µM	Cc1cc(C(=O)Nc2cccc(OC(C)C)c2)cc(C)c1OCCN	–
0.072 µM	Cc1cc(C(=O)Nc2cc(OC(C)C)cc(OC(C)C)c2)cc(C)c1OCCN	–

More lines, now with the values behind:

SMILES	IC50 [1]	other results
NC(N)=Nc1ncc(Cl)c2ccc(-c3cccc(C(=O)O)c3)cc12	0.037 µM	–
NCCOc1c(Cl)cc(C(=O)Nc2ccccc2)cc1Cl	35 µM	–
COc1ccccc1NC(=O)c1cc(Cl)c(OCCN)c(Cl)c1	23 µM	–
CCOc1c(Cl)cc(N2CCCCC2)cc1NC(=O)c1cc(C)c(OCCN)c(C)c1	–	bioavailability [2]: 60%; Vd [3]: 27 L/kg; pKa [4]: 8.75; half-life [5]: 7.5 h; clearance [6]: 43 mL/min/kg
Cc1cc(C(=O)Nc2cc(F)cc(N3CCOCC3)c2)cc(C)c1OCCN	1.6 µM	–
